The values that follow are results of earlier work, collected in patent US20110052625A1, “COMPOSITIONS AND METHODS FOR TREATING DIABETES USING LISOFYLLINE ANALOGS AND ISLET NEOGENESIS ASSOCIATED PEPTIDE” (DIAKINE THERAPEUTICS, INC., priority 2008, published 2011).

This data set relates to overt diabetic NOD (Non-Obese Diabetic) mice. The following applies: given alone; cited from earlier work.

Ends that are not written are not given here.

In the case of “GLP-1: "a 300-amino-acid (peptide) incretin synthesized in the small and large intestine by the L-type cells" (HAEGTFTSDVSSYLEGQAAKEFIAWLVKGR; ends and bridges not checked; UniProt P01275 98-127, looked up)”, the effect on hyperglycemia entry is given as “no effect”.
